The values below come from PMC11418636, “Evaluating the potential of non‐immunosuppressive cyclosporin analogs for targeting Toxoplasma gondii cyclophilin: Insights from structural studies” (Protein Science : A Publication of the Protein Society, 2024).

Test [1] addresses T1, TgCyp23 (Toxoplasma gondii, UniProt B9PS61). The test is described as follows: Isothermal titration calorimetry (ITC) binding to TgCyp23. Conditions: 20°C, 50 mM HEPES pH 8.0, 100 mM NaCl, error SEM of triplicate. As to the method:
Isothermal titration calorimetry (ITC) experiments were performed on a PEAQ‐ITC instrument from MicroCal (Northampton, MA) as previously described (Bombardi et al., [2022]; Conter et al., [2021]; Favretto et al., [2023]). Stock solutions of dhCsA, NIM811, and Alisporivir were prepared in 100% EtOH and successively diluted in a buffer of 50 mM HEPES, pH 8.0, 100 mM NaCl at a final concentration of 8 μM. […] The analog solutions were titrated with 2 μL (total 19 injections) of a 66 μM TgCyp23 solution supplemented with 0.1% EtOH. All the experiments were executed at an operating temperature of 20°C and a time gap of 150 s between each injection. Protein and ligand samples were filtered and degassed thoroughly before the experiments. Reference experiments were performed in the absence of a ligand or a protein, and the heat of dilution was subtracted from each experiment. Each titration set was repeated as a triplicate and the error was estimated as the SEM. The data were analyzed using the software MicroCal Origin, and the apparent dissociation constants Kd, the enthalpy changes (ΔH), and entropy changes (ΔS) were obtained.

The target of test [2] is T1, TgCyp23. The test is described as follows: Stopped-flow rapid kinetics of binding to TgCyp23. Conditions: association rate constant, 20°C, pH 7.4, 0.5 μM TgCyp23, ligands 1 to 7 μM. As for the experimental part: Stopped‐flow experiments were performed on an SX‐18 stopped‐flow apparatus (Applied Photophysics, Leatherhead, UK) at 20°C in 50 mM Hepes, 150 mM NaCl, 1 mM DTT (pH 7.4). Fluorescence emission was measured using a 320 nm cutoff filter (λex = 280 nm). The concentration of TgCyp23 after mixing was 0.5 μM, and the concentration of ligands after mixing ranged from 1 to 7 μM. For each trace, data from 4 to 6 injections were averaged and fitted with a single exponential function, excluding data points in the dead‐time of the stopped flow (<2 ms).

The target of test [3] is T1, TgCyp23. The test is described as follows: Circular dichroism (CD) thermal denaturation of TgCyp23 with ligands. It counts as binding. The note with it: melting temperature of TgCyp23 with saturating ligand, 224 nm; TgCyp23 alone 52 ± 1. As to the method: Circular dichroism (CD) assays were conducted on a Jasco J‐1500 spectropolarimeter equipped with a Peltier temperature controller following the protocol described in (Bombardi et al., [2020]; Favretto et al., [2023]; Trande et al., [2019]; ). Briefly, denaturation profiles in the presence of saturating concentrations of ligands were obtained by monitoring the loss of secondary structure of TgCyp23 at 224 nm in the temperature range of 15–100°C, with a scan rate of 1.5°C/min. The protein concentration was 0.2 mg/mL, and the buffer used was 50 mM HEPES at pH 8.0 with 100 mM NaCl.

Test [4] has as its target T1, TgCyp23. The test is described as follows: Differential scanning calorimetry (DSC) of TgCyp23 with ligands. It counts as binding. The note with it: melting temperature of 70 μM TgCyp23 with ligand; TgCyp23 alone 49 ± 1. As to the method: Differential scanning calorimetry (DSC) experiments were conducted using a nano‐DSC (TA instrument) with a cell volume of 300 μL (Favretto et al., [2023]). […] Data were fitted according to a two‐state model using NanoAnalyze software (TA instrument).

Test [5] deals with T1, TgCyp23. The test is described as follows: PPIase inhibition, protease-coupled assay with AAPF peptide. It counts as biochemical. The note with it: PPIase activity, TgCyp23 7 nM, ligand 0 to 30 nM, 10 min on ice; error SEM of triplicate. As to the method: PPIase activity was determined using the synthetic peptide N‐succinyl‐Ala‐Ala‐Pro‐Phe‐p‐nitroanilide (AAPF) based on the protease‐coupled assay as described in (Favretto et al., [2023]; Kofron et al., [1991]). In inhibition assays, TgCyp23 (7 nM) was incubated for 10 min on ice in the presence of increasing concentrations of the three analogs, ranging from 0 to 30 nM, before the addition of the AAPF peptide. In all experiments, the slope of the catalyzed reaction was corrected for spontaneous thermal cis–trans isomerization in the presence of chymotrypsin alone.
The residual enzymatic activity was estimated from the initial velocities of each catalyzed reaction and expressed as a percentage (%) of the original enzymatic activity (Astegno et al., [2017]). Residual enzymatic activities were plotted against ligand concentrations, and the obtained curve was analyzed to determine the IC50 value for each tested ligand. The experiments were repeated in triplicate, and the error was estimated as the standard error of the mean (SEM).

In the next test the target is CypA. Conditions: Ptak et al., 2008, read-out: Ki, inhibition of CypA PPIase activity, cited from earlier work.

Read-outs that look alike come from different tables or passages of the source.

T1 sequence (B9PS61 entry or part of it): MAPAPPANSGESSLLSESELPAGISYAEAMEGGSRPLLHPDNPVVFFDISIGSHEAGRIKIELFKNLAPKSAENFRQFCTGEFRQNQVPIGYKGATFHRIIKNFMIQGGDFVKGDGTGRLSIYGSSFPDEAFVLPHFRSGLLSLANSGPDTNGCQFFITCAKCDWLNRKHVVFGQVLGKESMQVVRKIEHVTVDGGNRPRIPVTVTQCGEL

On to `CCCC[C@@H](C)[C@@H](O)[C@H]1C(=O)N[C@@H](CC)C(=O)N(C)CC(=O)N(C)[C@@H](CC(C)C)C(=O)N[C@@H](C(C)C)C(=O)N(C)[C@@H](CC(C)C)C(=O)N[C@@H](C)C(=O)N[C@H](C)C(=O)N(C)[C@@H](CC(C)C)C(=O)N(C)[C@@H](CC(C)C)C(=O)N(C)[C@@H](C(C)C)C(=O)N1C` [dhCsA, Dihydrocyclosporin A], for which, at TgCyp23 [1], the affinity, expressed as Kd, was 200 ± 92 nM. The molecule also displayed a kon on TgCyp23 [2] of 1.85e+06 ± 110000 M⁻¹ s⁻¹. Besides, the “Tm (CD)” value at TgCyp23 [3] is 57 ± 1 °C. Further, the “Tm (DSC)” value on TgCyp23 [4] was 53 ± 1 °C. For the same molecule, the IC50 against TgCyp23 [5] is 1.2 ± 0.2 nM.

In turn, `C/C=C/C[C@@H](C)[C@@H](O)[C@H]1C(=O)N[C@@H](CC)C(=O)N(C)CC(=O)N(C)[C@@H]([C@@H](C)CC)C(=O)N[C@@H](C(C)C)C(=O)N(C)[C@@H](CC(C)C)C(=O)N[C@@H](C)C(=O)N[C@H](C)C(=O)N(C)[C@@H](CC(C)C)C(=O)N(C)[C@@H](CC(C)C)C(=O)N(C)[C@@H](C(C)C)C(=O)N1C` [NIM811, MeIle-4-Cyclosporin] came in with a dissociation constant Kd on TgCyp23 [1] of 43 ± 10 nM. Moreover, the kon on TgCyp23 [2] is 2.77e+06 ± 150000 M⁻¹ s⁻¹. Moreover, at TgCyp23 [3], the “Tm (CD)” value was 58 ± 1 °C. Further, on TgCyp23 [4], the “Tm (DSC)” value is 56 ± 1 °C. At TgCyp23 [5], this molecule gave an IC50 of 0.85 ± 0.03 nM. In addition, the Ki on CypA (ref Schiene-Fischer et al., 2022) was 2.1 nM.

Molecule `C/C=C/C[C@@H](C)[C@@H](O)[C@H]1C(=O)N[C@@H](CC)C(=O)N(C)[C@H](C)C(=O)N(CC)[C@@H](C(C)C)C(=O)N[C@@H](C(C)C)C(=O)N(C)[C@@H](CC(C)C)C(=O)N[C@@H](C)C(=O)N[C@H](C)C(=O)N(C)[C@@H](CC(C)C)C(=O)N(C)[C@@H](CC(C)C)C(=O)N(C)[C@@H](C(C)C)C(=O)N1C` [Alisporivir, MeAla-3-EtVal-4-Cyclosporin] returned a Kd on TgCyp23 [1] of 15 ± 3 nM. The molecule further registered a kon on TgCyp23 [2] of 3.97e+06 ± 210000 M⁻¹ s⁻¹. The “Tm (CD)” value at TgCyp23 [3] was found to be 59 ± 1 °C. Moreover, on TgCyp23 [4], the “Tm (DSC)” value is 55 ± 1 °C. On TgCyp23 [5], this molecule had an IC50 of 0.77 ± 0.01 nM. Also, the Ki at CypA (ref Coelmont et al., 2010, de Wilde et al., 2013, Gallay & Lin, 2013) was 0.34 nM.
